Laboratory results taken from ChEMBL document CHEMBL1614632, “Trend analysis of a database of intravenous pharmacokinetic parameters in humans for 670 drug compounds” (Drug Metab Dispos, 2008).

Columns and labels:
[1] = clinical; conditions: human, in vivo, iv, t1/2
[2] = clinical; conditions: human, in vivo, iv
[3] = clinical; conditions: human, in vivo, iv; remark: listed apart in the source
[4] = clinical; conditions: human, in vivo, iv, CL
[5] = clinical; conditions: human, in vivo, iv, Vdss

Compound `COc1ccccc1Oc1c(NS(=O)(=O)c2ccc(C(C)(C)C)cc2)nc(-c2ncccn2)nc1OCCO` [BOSENTAN] has a half-life [1] of 4.1 h, an MRT [2] of 2.3 h and a fraction unbound [3] of 0.037. It also gave a clearance [4] of 2.1 mL/min/kg and a Vd [5] of 0.29 L/kg.

Work on `CO/N=C(\C(=O)N[C@@H]1C(=O)N2C(C(=O)O)=C(COC(C)=O)CS[C@H]12)c1csc(N)n1` [CEFOTAXIME] yielded a half-life [1] of 1.2 h, an MRT [2] of 1.2 h and a fraction unbound [3] of 0.6. The clearance [4] was 2.7 mL/min/kg and the Vd [5] was 0.19 L/kg.

For `COc1ccc2cc1Oc1cc3c(cc1OC)CC[N+](C)(C)[C@H]3Cc1ccc(cc1)Oc1c(OC)c(OC)cc3c1[C@@H](C2)[N+](C)(C)CC3.[I-].[I-]` [METOCURINE IODIDE], the half-life [1] was 5.1 h, the MRT [2] was 5.6 h and the fraction unbound [3] was 0.65. It also gave a clearance [4] of 1.2 mL/min/kg and a Vd [5] of 0.4 L/kg.

In the case of `CN(C)CCCN1c2ccccc2CCc2cc(O)ccc21` [2-HYDROXYIMIPRAMINE], the half-life [1] is reported as 10 h, the MRT [2] is reported as 12 h and the fraction unbound [3] is reported as 0.36. It also gave a clearance [4] of 9.2 mL/min/kg and a Vd [5] of 6.6 L/kg.

Work on `CN(C)/N=N/c1[nH]cnc1C(N)=O` [DACARBAZINE] yielded a half-life [1] of 6.2 h, an MRT [2] of 7.8 h and a fraction unbound [3] of 1. For the same compound, the clearance [4] was 2.6 mL/min/kg and the Vd [5] was 1.2 L/kg.

With `C[C@@H](CN1CC(=O)NC(=O)C1)N1CC(=O)NC(=O)C1` [DEXRAZOXANE] the half-life [1] was 2.5 h, the MRT [2] was 3 h and the fraction unbound [3] was 1. For the same compound, the clearance [4] was 3.1 mL/min/kg and the Vd [5] was 0.55 L/kg.

`C=CCC1(C(C)C#CCC)C(=O)N=C(O)N(C)C1=O` (stereo not given) [METHOHEXITAL] gave a half-life [1] of 1.6 h, an MRT [2] of 1.5 h and a fraction unbound [3] of 0.27. It also gave a clearance [4] of 12 mL/min/kg and a Vd [5] of 1.1 L/kg.

In the case of `CC(C)NCC(O)c1ccc(O)c(O)c1` (stereo not given) [ISOPROTERENOL], the half-life [1] is reported as 0.41 h, the MRT [2] is reported as 0.43 h and the fraction unbound [3] is reported as 0.71. It also gave a clearance [4] of 56 mL/min/kg and a Vd [5] of 1.5 L/kg.

With `Nc1c(CC(=O)O)cccc1C(=O)c1ccc(Br)cc1` [BROMFENAC] the half-life [1] was 2.6 h, the MRT [2] was 1.5 h and the fraction unbound [3] was 0.0011. For the same compound, the clearance [4] was 1.3 mL/min/kg and the Vd [5] was 0.11 L/kg.

For `CCOC(=O)C1(c2ccccc2)CCN(C)CC1` [MEPERIDINE], the half-life [1] was 7.9 h, the MRT [2] was 6.4 h and the fraction unbound [3] was 0.42. It also gave a clearance [4] of 4.9 mL/min/kg and a Vd [5] of 2.3 L/kg.

For `CC(=O)O[C@H]1C[C@]2(C)CC[C@H]3[C@@H]4C[C@H](N5CC[N+](C)(C)CC5)[C@H](OC(C)=O)[C@@]4(C)CC[C@@H]3[C@@]2(C)C[C@@H]1N1CC[N+](C)(C)CC1.[Br-].[Br-]` [PIPERCURONIUM], the half-life [1] was 1.9 h, the MRT [2] was 1.9 h and the fraction unbound [3] was 0.98. The clearance [4] was 3 mL/min/kg and the Vd [5] was 0.35 L/kg.

Work on `CCC[C@@H]1C[C@@H](C(=O)N[C@@H]([C@H]2O[C@H](SC)[C@H](O)[C@@H](O)[C@H]2O)[C@@H](C)O)N(C)C1` [LINCOMYCIN] yielded a half-life [1] of 5.6 h, an MRT [2] of 7.5 h and a fraction unbound [3] of 0.14. For the same compound, the clearance [4] was 2.1 mL/min/kg and the Vd [5] was 1 L/kg.

`C=CC[N+]1([C@H]2C[C@H]3[C@@H]4CC[C@H]5C[C@H](O)[C@@H](N6CCOCC6)C[C@]5(C)[C@H]4CC[C@]3(C)[C@H]2OC(C)=O)CCCC1` [ROCURONIUM] gave a half-life [1] of 1.6 h, an MRT [2] of 0.95 h and a fraction unbound [3] of 0.54. The clearance [4] was 3.7 mL/min/kg and the Vd [5] was 0.21 L/kg.

In the case of `CN(C)[C@@H]1C(O)=C(C(N)=O)C(=O)[C@@]2(O)C(O)=C3C(=O)c4c(O)cccc4[C@@](C)(O)[C@H]3[C@H](O)[C@@H]12` [OXYTETRACYCLINE], the half-life [1] is reported as 10 h, the MRT [2] is reported as 12 h and the fraction unbound [3] is reported as 0.9. The clearance [4] was 2 mL/min/kg and the Vd [5] was 1.7 L/kg.

Compound `C#C[C@]1(O)CC[C@H]2[C@@H]3CCC4=CC(=O)CC[C@@H]4[C@H]3CC[C@@]21CC` [LEVONORGESTREL] has a half-life [1] of 9.4 h, an MRT [2] of 14 h and a fraction unbound [3] of 0.025. The clearance [4] was 1.8 mL/min/kg and the Vd [5] was 1.5 L/kg.

Compound `Cc1ccc(C(=O)Nc2ccc(S(=O)(=O)O)c3cc(S(=O)(=O)O)cc(S(=O)(=O)O)c23)cc1NC(=O)c1cccc(NC(=O)Nc2cccc(C(=O)Nc3cc(C(=O)Nc4ccc(S(=O)(=O)O)c5cc(S(=O)(=O)O)cc(S(=O)(=O)O)c45)ccc3C)c2)c1` [SURAMIN] has a half-life [1] of 1200 h, an MRT [2] of 1400 h and a fraction unbound [3] of 0.001. For the same compound, the clearance [4] was 0.0057 mL/min/kg and the Vd [5] was 0.54 L/kg.

For `Cc1cccc(N2CC(CO)OC2=O)c1` (stereo not given) [TOLOXATONE], the half-life [1] was 1.6 h, the MRT [2] was 2.3 h and the fraction unbound [3] was 0.49. The clearance [4] was 11 mL/min/kg and the Vd [5] was 1.5 L/kg.

Work on `O=C1CCc2ccc(OCCCCN3CCN(c4cccc(Cl)c4Cl)CC3)cc2N1` [ARIPIPRAZOLE] yielded a half-life [1] of 75 h, an MRT [2] of 98 h and a fraction unbound [3] of 0.01. For the same compound, the clearance [4] was 0.83 mL/min/kg and the Vd [5] was 4.9 L/kg.

Work on `Cn1nnnc1SCC1=C(C(=O)O)N2C(=O)[C@@H](NC(=O)[C@H](O)c3ccccc3)[C@H]2SC1` [CEFAMANDOLE] yielded a half-life [1] of 0.75 h, an MRT [2] of 0.75 h and a fraction unbound [3] of 0.25. The clearance [4] was 3.6 mL/min/kg and the Vd [5] was 0.16 L/kg.

`CC(=O)Nc1nnc(S(N)(=O)=O)s1` [ACETAZOLAMIDE] showed a half-life [1] of 13 h, an MRT [2] of 9.5 h and a fraction unbound [3] of 0.04. For the same compound, the clearance [4] was 0.65 mL/min/kg and the Vd [5] was 0.37 L/kg.

In the case of `CNCCCC12CCC(c3ccccc31)c1ccccc12` [MAPROTILINE], the half-life [1] is reported as 51 h, the MRT [2] is reported as 54 h and the fraction unbound [3] is reported as 0.11. For the same compound, the clearance [4] was 14 mL/min/kg and the Vd [5] was 45 L/kg.

`COCC(=O)O[C@]1(CCN(C)CCCc2nc3ccccc3[nH]2)CCc2cc(F)ccc2[C@@H]1C(C)C` [MIBEFRADIL] gave a half-life [1] of 13 h, an MRT [2] of 13 h and a fraction unbound [3] of 0.005. The clearance [4] was 4 mL/min/kg and the Vd [5] was 3.1 L/kg.

In the case of `CC(=O)N(CC(O)CO)c1c(I)c(C(=O)NCC(O)CO)c(I)c(C(=O)NCC(O)CO)c1I` (stereo not given) [IOHEXOL], the half-life [1] is reported as 1.5 h, the MRT [2] is reported as 1.3 h and the fraction unbound [3] is reported as 1. For the same compound, the clearance [4] was 2 mL/min/kg and the Vd [5] was 0.16 L/kg.

`CC[C@@H](CO)NCCN[C@@H](CC)CO` [ETHAMBUTOL] showed a half-life [1] of 3.1 h, an MRT [2] of 2.7 h and a fraction unbound [3] of 0.18. It also gave a clearance [4] of 10 mL/min/kg and a Vd [5] of 1.7 L/kg.

For `CO/N=C(\C(=O)N[C@@H]1C(=O)N2C(C(=O)O)=C(CSc3nc(C)c(CC(=O)O)s3)CS[C@H]12)c1csc(N)n1` [CEFODIZIME], the half-life [1] was 4.2 h, the MRT [2] was 1.5 h and the fraction unbound [3] was 0.18. For the same compound, the clearance [4] was 0.61 mL/min/kg and the Vd [5] was 0.054 L/kg.

With `CC1(C)S[C@@H]2[C@H](NC(=O)C(c3ccccc3)S(=O)(=O)O)C(=O)N2[C@H]1C(=O)O` (stereo not given in full) [SULBENICILLIN] the half-life [1] was 1.2 h, the MRT [2] was 1.6 h and the fraction unbound [3] was 0.5. For the same compound, the clearance [4] was 1.6 mL/min/kg and the Vd [5] was 0.15 L/kg.

In the case of `CC(=O)OCC1=C(C(=O)O)N2C(=O)[C@@H](NC(=O)CSc3ccncc3)[C@H]2SC1` [CEPHAPIRIN], the half-life [1] is reported as 1.2 h, the MRT [2] is reported as 0.8 h and the fraction unbound [3] is reported as 0.55. The clearance [4] was 2.7 mL/min/kg and the Vd [5] was 0.13 L/kg.

For `Nc1nc(/C(=N/O)C(=O)N[C@@H]2C(=O)N3C(C(=O)O)=C(/C=C4\CCN([C@@H]5CCNC5)C4=O)CS[C@H]23)ns1` [CEFTOBIPROLE], the half-life [1] was 3.3 h, the MRT [2] was 3 h and the fraction unbound [3] was 0.62. For the same compound, the clearance [4] was 1.5 mL/min/kg and the Vd [5] was 0.27 L/kg.

With `CC(=O)Oc1ccccc1C(=O)O` [ASPIRIN] the half-life [1] was 0.26 h, the MRT [2] was 0.3 h and the fraction unbound [3] was 0.68. It also gave a clearance [4] of 12 mL/min/kg and a Vd [5] of 0.22 L/kg.

Compound `C=C[C@@]1(O)C[N+]2(C)CC[C@H]1C[C@@H]2[C@@H](O)c1ccnc2ccc(OC)cc12` has a half-life [1] of 6.7 h, an MRT [2] of 9.4 h and a fraction unbound [3] of 0.47. It also gave a clearance [4] of 12 mL/min/kg and a Vd [5] of 6.8 L/kg.
